According to patent US20070148184A1, “Survivin-derived peptides and use thereof” (priority 2003, published 2007):
pEC50: −log10 of the molar value.

Key:
HLA-A2 = biological target: T1, HLA-A2 (Homo sapiens, UniProt P04439, D140Y/D185E/D98H/E176V/E277Q/G131W/G231S/I119V/I121R/I166T/I218V/L300P/L318F/N151K/N90K/P208A/P217A/Q86G/Q94H/R138H/R169H/T345S); test: Assembly assay for peptide binding to class I MHC, HLA-A2; conditions: Example 1, Table 1; read-out: C50 (peptide concentration for half maximal binding to HLA-A2)
T1 construct: stabilization of the class I molecules after loading of peptide to the peptide transporter deficient cell line T2; endogenous in cells; host or cells: T2 (TAP-deficient human hybrid cell line), metabolically labelled lysate
Method: This assembly assay is carried out as described previously (12,13), and it is based on stabilisation of the HLA molecule after loading of peptide to the peptide transporter deficient cell line T2. Subsequently, correctly folded stable HLA heavy chains are immunoprecipitated using conformation dependent antibodies and the peptide binding is quantitated.
Assembly assays for binding of the synthetic peptides to class I MHC molecules metabolically labeled with [35S]-methionine were carried out as described (12,13). The assembly assay is based on stabilization of the class I molecules after loading of peptide to the peptide transporter deficient cell line T2. Subsequently, correctly folded stable MHC heavy chains are immunoprecipitated using conformation-dependent antibodies. After IEF electrophoresis, gels were exposed to phosphoImager screens, and peptide binding was quantified using the Imagequant PhosphorImager program (Molecular Dynamics, Sunnyvale, Calif.).
The binding affinity of synthetic peptides (Invitrogen, Carlsbad, Calif., USA) to HLA-A1, -A2, A3, or -A11 molecules metabolically labeled with [^35S]-methionine was measured in the assembly assay, as described previously (12). The assay is based on peptide-mediated stabilization of empty HLA molecules released upon cell lysis, from the TAP-deficient cell lines. […] MHC heavy chain bands were quantified using the ImageGauge Phosphorimager program (FUJI photo film Co., Carrollton, Tex., USA). The intensity of the band is proportional to the amount of peptide-bound class I MHC complex recovered during the assay. Subsequently, the extent of stabilization of the HLA-molecule is directly related to the binding affinity of the added peptide. The peptide concentration used to analyze the recovery of the HLA-molecules was 40, 4, 0.4, 0.04 μM for HLA-A1 and HLA-A11, and 100, 10, 1, 0.1, 0.01 μM for HLA-A2 and HLA-A3. The C50 value was subsequently calculated for each peptide as the peptide concentration sufficient for half maximal stabilization.

[1] = tested on: stage 1V melanoma patients; test: Vaccination of melanoma patients with peptide pulsed dendritic cells; conditions: human, in vivo
Source text: All clinical procedures were in accordance with the Declaration of Helsinki and all patients provided informed consent prior to therapy. Stage 1V cutaneous or uveal melanoma patients were eligible when their disease was progressive despite at least two different chemo-, immuno, or chemoimmunotherapies. […] Important exclusion criteria were evidence of CNS metastases, active autoimmune or infectious diseases, pregnancy and lactation, as well as significant psychiatric abnormality. Peptide pulsed dendritic cells were generated as previously described (82). Briefly, PBMCs from leukapheresis were isolated on LymphoprepTM (Nycomed Pharma), frozen in aliquots and stored in liquid nitrogen. One week prior to vaccination, PBMCs were thawed, washed and cultured in medium containing gentamycin, glutamine and heat inactivated autologous plasma. On day 1 and 5, IL-4 and GM-CSF were added. To differentiate mature DCs, […] and prostaglandin E2 were added on day 6. […] Immunological responses were monitored by the ELISPOT assay, using PBMCs obtained every three months, to detect survivin96-104 specific IFN-γ release. […] The reaction was terminated upon the appearance of dark purple spots, which were quantitated using the AlphaImager System (Alpha Innotech, San Leandro, Calif., USA).

pEC50 (HLA-A2): 6.00
SMILES: CSCC[C@H](NC(=O)[C@@H](N)CC(C)C)C(=O)N[C@@H](CC(C)C)C(=O)NCC(=O)N[C@@H](CCC(=O)O)C(=O)N[C@@H](Cc1ccccc1)C(=O)N[C@@H](CC(C)C)C(=O)N[C@@H](CCCCN)C(=O)N[C@@H](CC(C)C)C(=O)O [Sur1M2]
vaccination associated toxicity [1]: vaccination associated toxicity was not observed
